Assay results from patent US11427548B2 (Arvinas Operations, Inc., priority 2015, dated 2022).
Read-outs that look alike come from different tables or passages of the source. Blank lines part the entries; values can stand above or below the compound they belong to.

Target: T1, Androgen Receptor (Homo sapiens, UniProt P10275)
T1 construct: endogenous in cells; host or cells: VCaP cells
T1 sequence (P10275 1-920): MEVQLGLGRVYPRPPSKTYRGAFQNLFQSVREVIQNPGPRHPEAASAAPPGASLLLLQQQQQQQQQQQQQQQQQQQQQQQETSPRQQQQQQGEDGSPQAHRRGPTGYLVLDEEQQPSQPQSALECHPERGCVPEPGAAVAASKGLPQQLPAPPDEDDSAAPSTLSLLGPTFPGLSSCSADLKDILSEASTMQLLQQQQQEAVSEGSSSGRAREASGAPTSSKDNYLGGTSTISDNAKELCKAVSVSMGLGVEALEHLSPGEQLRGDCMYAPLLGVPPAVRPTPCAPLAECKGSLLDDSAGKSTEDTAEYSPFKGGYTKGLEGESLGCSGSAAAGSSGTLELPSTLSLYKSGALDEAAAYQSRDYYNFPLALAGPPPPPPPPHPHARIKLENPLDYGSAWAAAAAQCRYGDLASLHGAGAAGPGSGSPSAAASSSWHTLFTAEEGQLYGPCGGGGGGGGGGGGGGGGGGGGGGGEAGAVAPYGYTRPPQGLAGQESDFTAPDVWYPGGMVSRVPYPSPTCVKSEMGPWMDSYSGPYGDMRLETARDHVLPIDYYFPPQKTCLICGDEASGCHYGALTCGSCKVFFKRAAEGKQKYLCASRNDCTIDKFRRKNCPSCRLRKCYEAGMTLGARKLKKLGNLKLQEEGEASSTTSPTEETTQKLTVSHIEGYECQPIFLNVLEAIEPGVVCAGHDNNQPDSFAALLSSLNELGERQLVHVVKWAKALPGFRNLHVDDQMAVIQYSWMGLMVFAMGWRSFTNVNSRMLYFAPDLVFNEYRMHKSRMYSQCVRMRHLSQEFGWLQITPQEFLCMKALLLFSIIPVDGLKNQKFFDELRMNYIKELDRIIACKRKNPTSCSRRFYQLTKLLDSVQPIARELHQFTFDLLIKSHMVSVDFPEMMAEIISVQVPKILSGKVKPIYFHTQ
Test: Androgen Receptor ELISA assay (PathScan AR ELISA) in VCaP cells: AR degradation, Dmax and DC50
Assay type: cell-based
In short: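 VCaP cells in phenol red-free RPMI with 5% charcoal-stripped FBS were grown at least 3 days, then given compound as 7 half-log doses in 0.1% DMSO with 0.1 nM R1881 for 24 h. Lysates went into a sandwich AR ELISA with TMB read at 450 nm.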

[1] = VCaP cells; Table 36; read-out: VCaP DC50
[2] = VCaP, VCaP cells; Table 36; read-out: VCaP Dmax (%)
[3] = VCaP cells; Table 35; read-out: VCaP DC50
[4] = VCaP, VCaP cells; Table 35; read-out: VCaP Dmax (%)
[5] = read-out: VCaP DC50; VCaP cells; Table 36
[6] = VCaP cells; Table 34; read-out: VCaP DC50
[7] = VCaP, VCaP cells; Table 34; read-out: VCaP Dmax (%)
[8] = VCaP, read-out: VCaP Dmax (%), VCaP cells; Table 36

DC50 [1]: > 501 nM
Dmax [2]: 26 to 50%
SMILES: Cc1ncsc1-c1ccc([C@H](C)NC(=O)[C@@H]2C[C@@H](O)CN2C(=O)[C@@H](NC(=O)COCCCCCNC23CC(C(=O)N[C@H]4C(C)(C)[C@H](Oc5ccc(C#N)c(Cl)c5)C4(C)C)(C2)C3)C(C)(C)C)cc1 [Example 666, (2S,4R)-1-((S)-2-(2-((5-((3-(((1r,3r)-3-(3-chloro-4-cyanophenoxy)-2,2,4,4-tetramethylcyclobutyl)carbamoyl)bicyclo[1.1.1]pentan-1-yl)amino)pentyl)oxy)acetamido)-3,3-dimethylbutanoyl)-4-hydroxy-N-((S)-1-(4-(4-methylthiazol-5-yl)phenyl)ethyl)pyrrolidine-2-carboxamide]

SMILES: Cc1ncsc1-c1ccc(CNC(=O)[C@@H]2C[C@@H](O)CN2C(=O)[C@@H](NC(=O)CCOCCN2CCC(COc3ccc(N4C(=S)N(c5ccc(C#N)c(C(F)(F)F)c5)C(=O)C4(C)C)cc3)CC2)C(C)(C)C)cc1 [Example 313]
DC50 (read-out: VCaP DC50; VCaP cells; Table 34): < 50 nM

DC50 [1]: < 50 nM
Dmax [2]: 51 to 70%
SMILES: Cc1ncsc1-c1ccc([C@H](C)NC(=O)[C@@H]2C[C@@H](O)CN2C(=O)C(c2cc(CCN3CCN(c4ccc(C(=O)N[C@H]5C(C)(C)[C@H](Oc6ccc(C#N)c(Cl)c6)C5(C)C)cn4)CC3)no2)C(C)C)cc1 (stereo partly drawn) [Example 838, N-((1r,3r)-3-(3-chloro-4-cyanophenoxy)-2,2,4,4-tetramethylcyclobutyl)-6-(4-(2-(5-(1-((2S,4R)-4-hydroxy-2-(((S)-1-(4-(4-methylthiazol-5-yl)phenyl)ethyl)carbamoyl)pyrrolidin-1-yl)-3-methyl-1-oxobutan-2-yl)isoxazol-3-yl)ethyl)piperazin-1-yl) nicotinamide]

SMILES: Cc1ncsc1-c1ccc(CNC(=O)[C@@H]2C[C@@H](O)CN2C(=O)[C@@H](NC(=O)CCOCCOc2ccc(-c3ccc(N4C(=S)N(c5ccc(C#N)c(C(F)(F)F)c5)C(=O)C4(C)C)cc3)nc2)C(C)(C)C)cc1 [Example 87]
Dmax (VCaP, read-out: VCaP Dmax (%)): 26 to 50%
DC50 (read-out: VCaP DC50; concentration that caused 50% Androgen Receptor degradation, VCaP cells (Table 32)): < 50 nM

DC50 [3]: < 50 nM
Dmax [4]: > 71%
SMILES: Cc1ncsc1-c1ccc([C@H](C)NC(=O)[C@@H]2C[C@@H](O)CN2C(=O)[C@@H](NC(=O)CNC(=O)c2ccc(Oc3ccc(C(=O)N[C@H]4C(C)(C)[C@H](Oc5ccc(C#N)c(Cl)c5)C4(C)C)cn3)cc2)C(C)(C)C)cc1 [Example 448]

DC50 [1]: < 50 nM
Dmax [2]: > 71%
SMILES: Cc1ncsc1-c1ccc([C@H](C)NC(=O)[C@@H]2C[C@@H](O)CN2C(=O)[C@@H](NC(=O)CN2CCN(CCC3CCN(c4ccc(C(=O)N[C@H]5C(C)(C)[C@H](Oc6ccc(C#N)c(Cl)c6)C5(C)C)cn4)CC3)CC2)C(C)(C)C)cc1 [Example 833, N-((1r,3r)-3-(3-chloro-4-cyanophenoxy)-2,2,4,4-tetramethylcyclobutyl)-6-(4-(2-(4-(2-(((S)-1-((2S,4R)-4-hydroxy-2-(((S)-1-(4-(4-methylthiazol-5-yl)phenyl)ethyl)carbamoyl)pyrrolidin-1-yl)-3,3-dimethyl-1-oxobutan-2-yl)amino)-2-oxoethyl)piperazin-1-yl)ethyl)piperidin-1-yl)nicotinamide]

Dmax (VCaP, read-out: VCaP Dmax (%)): > 71%
DC50 [5]: < 50 nM
SMILES: Cc1ncsc1-c1ccc([C@H](C)NC(=O)[C@@H]2C[C@@H](O)CN2C(=O)[C@@H](NC(=O)COCCN2C[C@H]3C[C@@H]2CN3c2ccc(C(=O)N[C@H]3C(C)(C)[C@H](Oc4ccc(C#N)c(Cl)c4)C3(C)C)cn2)C(C)(C)C)cc1 [Example 636, N-((1r,3R)-3-(3-chloro-4-cyanophenoxy)-2,2,4,4-tetramethylcyclobutyl)-6-((1R,4R)-5-(2-(2-(((S)-1-((2S,4R)-4-hydroxy-2-(((S)-1-(4-(4-methylthiazol-5-yl)phenyl)ethyl)carbam-oyl)pyrrolidin-1-yl)-3,3-dimethyl-1-oxobutan-2-yl)amino)-2-oxoethoxy)ethyl)-2,5-diazabicyclo[2.2.1]hept-an-2-yl)nicotinamide]

DC50 [3]: > 501 nM
Dmax [4]: 51 to 70%
SMILES: Cc1ncsc1-c1ccc([C@H](C)NC(=O)[C@@H]2C[C@@H](O)CN2C(=O)[C@@H](C(C)C)n2cc(OCC3CCN(c4ccc(C(=O)N[C@H]5C(C)(C)[C@H](Oc6ccc(C#N)c(Cl)c6)C5(C)C)cc4)CC3)cn2)cc1 [Example 436]

DC50 [6]: < 50 nM
Dmax [7]: > 71%
SMILES: Cc1ncsc1-c1ccc([C@H](C)NC(=O)[C@@H]2C[C@@H](O)CN2C(=O)[C@@H](NC(=O)COCC#CCOc2ccc(C(=O)N[C@H]3C(C)(C)[C@H](Oc4ccc(C#N)c(Cl)c4)C3(C)C)cc2)C(C)(C)C)cc1 [Example 388]

DC50 [6]: < 50 nM
Dmax [7]: > 71%
SMILES: CC(C)(C)[C@H](NC(=O)COCCCOCCCCOc1ccc(N2C(=S)N(c3ccc(C#N)c(Br)c3)C(=O)C2(C)C)cc1F)C(=O)N1C[C@H](O)C[C@H]1C(=O)NCc1ccc(-c2cnco2)cc1 [Example 334]

DC50 [1]: < 50 nM
Dmax [8]: < 25%
SMILES: CC(C)[C@H](C(=O)N1C[C@H](O)C[C@H]1C(=O)N[C@@H](C)c1ccc(C#N)cc1)c1cc(OCCN2CCN(c3ccc(C(=O)N[C@H]4C(C)(C)[C@H](Oc5ccc(C#N)c(Cl)c5)C4(C)C)cn3)CC2)no1 [Example 696, N-((1r,3r)-3-(3-chloro-4-cyanophenoxy)-2,2,4,4-tetramethylcyclobutyl)-6-(4-(2-((5-((S)-1-((2S,4R)-2-(((S)-1-(4-cyanophenyl)ethyl)carb-amoyl)-4-hydroxypyrrolidin-1-yl)-3-methyl-1-oxobutan-2-yl)isoxazol-3-yl)oxy)ethyl)piperazin-1-yl)nicotinamide]

SMILES: Cc1ncsc1-c1ccc([C@H](C)NC(=O)[C@@H]2C[C@@H](O)CN2C(=O)[C@@H](NC(=O)CN2CCO[C@H](CN3CCO[C@H](COc4ccc(N5C(=S)N(c6ccc(C#N)c(C(F)(F)F)c6)C(=O)C5(C)C)cc4)C3)C2)C(C)(C)C)cc1 [Example 675, (2S,4R)-1-((S)-2-(2-((R)-2-(((S)-2-((4-(3-(4-cyano-3-(trifluoromethyl)phenyl)-5,5-dimethyl-4-oxo-2-thioxoimidazolidin-1-yl)phenoxy)methyl)mor-pholino)methyl)mor-pholino)acetamido)-3,3-dimethylbutanoyl)-4-hydroxy-N-((S)-1-(4-(4-methylthiazol-5-yl)phenyl)ethyl)pyrrolidine-2-carboxamide]
DC50 [5]: > 501 nM

DC50 [1]: > 501 nM
Dmax [2]: < 25%
SMILES: Cc1ncsc1-c1ccc([C@H](C)NC(=O)[C@@H]2CCCN2C(=O)[C@@H](NC(=O)CN2CCN(CCCc3ccc(C(=O)N[C@H]4C(C)(C)[C@H](Oc5ccc(C#N)c(C(F)(F)F)c5)C4(C)C)cc3)CC2)C(C)(C)C)cc1 [Example 724, (S)-1-((S)-2-(2-(4-(3-(4-(((1r,3r)-3-(4-cyano-3-(trifluoromethyl)phenoxy)-2,2,4,4-tetramethylcyclobutyl)carbamoyl)phenyl)propyl)piperazin-1-yl)acetamido)-3,3-dimethylbutanoyl)-N-((S)-1-(4-(4-methylthiazol-5-yl)phenyl)ethyl)pyrrolidine-2-carboxamide]

DC50 [1]: < 50 nM
Dmax [8]: > 71%
SMILES: Cc1cc(O[C@H]2C(C)(C)[C@H](NC(=O)c3ccc(N4CCN(CCOCC(=O)N[C@H](C(=O)N5C[C@H](O)C[C@H]5C(=O)N[C@@H](C)c5ccc(-c6scnc6C)cc5)C(C)(C)C)CC4)nc3)C2(C)C)ccc1C#N [Example 680, N-((1r,3r)-3-(4-cyano-3-methylphenoxy)-2,2,4,4-tetramethylcyclobutyl)-6-(4-(2-(2-(((S)-1-((2S,4R)-4-hydroxy-2-(((S)-1-(4-(4-methylthiazol-5-yl)phenyl)ethyl)carbam-oyl)pyrrolidin-1-yl)-3,3-dimethyl-1-oxobutan-2-yl)amino)-2-oxoethoxy)ethyl)pipera-zin-1-yl)nicotinamide]

DC50 [3]: < 50 nM
Dmax [4]: 51 to 70%
SMILES: Cc1ncsc1-c1ccc([C@H](C)NC(=O)[C@@H]2C[C@@H](O)CN2C(=O)[C@@H](NC(=O)COCCCCCNc2ccc(C(=O)N[C@H]3C(C)(C)[C@H](Oc4ccc(C#N)c(Cl)c4)C3(C)C)nc2)C(C)(C)C)cc1 [Example 482]
